Tested on: migraine attacks
Experiment: Naltrexone/acetaminophen open-label pilot study, acute treatment of migraine: headache pain (4-point scale; relief score ≤1, pain-free score = 0), associated symptoms, additional meds
Assay type: in vivo, human
Method: Sixteen unique patients were enrolled in an open phase pilot study for the acute treatment of migraine attacks, insomnia, and emotional pain. Of the sixteen patients, eleven were evaluated for one migraine attack, one for two attacks, two for four attacks, one for six attacks, and one for fourteen attacks. A total of forty-one […] treatments were evaluated. Patients received a single dose of one of the following treatment options:
The majority of the patients remained in the clinic for observation for 2 hours after dosing. They completed headache diary assessments immediately before and after dosing at time points: 7, 15, and 30 minutes; and 1, 1.5, 2, 3, 6, 12, 24, and 48 hours. Headache pain was assessed on a 4-point scale (0=none; 1=mild; 2=moderate; 3=severe). The assessment of photophobia, phonophobia, nausea, and neck/shoulder pain was assessed as present or absent. The assessment of emotional pain was recorded on a 4-point scale (0=none, 1=mild, 2=moderate, 3=severe). The assessment of difficulty sleeping or falling asleep (insomnia) was assessed on a 4-point scale (0=none, 1=mild, 2=moderate, 3=severe) at baseline, for the night before treatment and for the following nights at 24, and 48 hours. Patients recorded side effects severity at each time point. Patients recorded the time of the first rescue medication dose and all additional headache medications used within 48 hours. Patients were required to stay awake to record their assessments in the first 2 hours, sleeping was permitted thereafter. While asleep, assessments were completed according to patients' best estimation. For data analysis, it was assumed that a migraine attack is a unique patient. Patients were asked to specify (yes or no answer) to whether they experienced emotional pain symptoms such as: hurt feelings, sadness, fear, or anger. Patients who replied positively to having emotional pain were asked to specify the cause into one of the following options: relationship, work/school, money/debt, health, or loss/grief.

[1] = 7 min, NTX/APAP 2.25 mg/325 mg, NTX 2.25 mg
[2] = 7 min, NTX/APAP 3.25 mg/325 mg, NTX 3.25 mg
[3] = 7 min, NTX/APAP 5 mg/325 mg, NTX 5 mg
[4] = 7 min, naltrexone/acetaminophen 2.25 mg/325 mg (N=15), naltrexone 2.25 mg (N=3)
[5] = 15 min, NTX/APAP 2.25 mg/325 mg, NTX 2.25 mg
[6] = 15 min, NTX/APAP 3.25 mg/325 mg, NTX 3.25 mg
[7] = 15 min, NTX/APAP 5 mg/325 mg, NTX 5 mg
[8] = 15 min, NTX/APAP […]325 mg, NTX 1.5 mg
[9] = 15 min, naltrexone/acetaminophen 2.25 mg/325 mg (N=21), naltrexone 2.25 mg (N=9)
[10] = 30 min, NTX/APAP 2.25 mg/325 mg, NTX 2.25 mg
[11] = 30 min, NTX/APAP 3.25 mg/325 mg, NTX 3.25 mg
[12] = 30 min, NTX/APAP 5 mg/325 mg, NTX 5 mg
[13] = 30 min, NTX/APAP […]325 mg, NTX 1.5 mg
[14] = 30 min, naltrexone/acetaminophen 2.25 mg/325 mg (N=21), naltrexone 2.25 mg (N=9)
[15] = 1 h, NTX/APAP 2.25 mg/325 mg, NTX 2.25 mg
[16] = 1 h, NTX/APAP 3.25 mg/325 mg, NTX 3.25 mg

O=C1CC[C@@]2(O)[C@H]3Cc4ccc(O)c5c4[C@@]2(CCN3CC2CC2)[C@H]1O5 [naltrexone]
Additional meds taken [1]: 0 (0)
Headache pain-free [1]: 0 (0) n (%)
Headache pain-relief [1]: 0 (0) n (%)
Most bothersome symptom free [1]: 0 (0) n (%)
Nausea-free [1]: 0 (0) n (%)
Neck/shoulder pain-free [1]: 2 (67) n (%)
Phonophobia-free [1]: 2 (67) n (%)
Photophobia-free [1]: 0 (0) n (%)
Additional meds taken [2]: 0
Headache pain-free [2]: 0 n (%)
Headache pain-relief [2]: 0 n (%)
Most bothersome symptom free [2]: 0 n (%)
Nausea-free [2]: 2 n (%)
Neck/shoulder pain-free [2]: 0 n (%)
Phonophobia-free [2]: 0 n (%)
Photophobia-free [2]: 1 n (%)
Additional meds taken [3]: 0
Headache pain-free [3]: 0 n (%)
Headache pain-relief [3]: 0 n (%)
Most bothersome symptom free [3]: 0 n (%)
Nausea-free [3]: 0 n (%)
Neck/shoulder pain-free [3]: 0 n (%)
Phonophobia-free [3]: 0 n (%)
Photophobia-free [3]: 0 n (%)
Additional meds taken (7 min, all doses combined): 0 (0)
Headache pain-free (7 min, all doses combined): 0 (0) n (%)
Headache pain-relief (7 min, all doses combined): 0 (0) n (%)
Most bothersome symptom free (7 min, all doses combined): 0 (0) n (%)
Nausea-free (7 min, all doses combined): 2 (33) n (%)
Neck/shoulder pain-free (7 min, all doses combined): 2 (33) n (%)
Phonophobia-free (7 min, all doses combined): 2 (33) n (%)
Photophobia-free (7 min, all doses combined): 1 (16) n (%)
Headache pain-free [4]: 0%
Most bothersome symptom-free [4]: 0%
Additional meds taken [5]: 0 (0)
Headache pain-free [5]: 0 (0) n (%)
Headache pain-relief [5]: 4 (44) n (%)
Most bothersome symptom free [5]: 1 (11) n (%)
Nausea-free [5]: 3 (33) n (%)
Neck/shoulder pain-free [5]: 4 (44) n (%)
Phonophobia-free [5]: 4 (44) n (%)
Photophobia-free [5]: 3 (33) n (%)
Additional meds taken [6]: 0
Headache pain-free [6]: 0 n (%)
Headache pain-relief [6]: 2 n (%)
Most bothersome symptom free [6]: 0 n (%)
Nausea-free [6]: 3 n (%)
Neck/shoulder pain-free [6]: 0 n (%)
Phonophobia-free [6]: 0 n (%)
Photophobia-free [6]: 1 n (%)
Additional meds taken [7]: 1
Headache pain-free [7]: 0 n (%)
Headache pain-relief [7]: 0 n (%)
Most bothersome symptom free [7]: 0 n (%)
Nausea-free [7]: 0 n (%)
Neck/shoulder pain-free [7]: 0 n (%)
Phonophobia-free [7]: 0 n (%)
Photophobia-free [7]: 0 n (%)
Additional meds taken [8]: 0
Headache pain-free [8]: 0 n (%)
Headache pain-relief [8]: 1 n (%)
Most bothersome symptom free [8]: 0 n (%)
Nausea-free [8]: 2 n (%)
Neck/shoulder pain-free [8]: 1 n (%)
Phonophobia-free [8]: 0 n (%)
Photophobia-free [8]: 0 n (%)
Additional meds taken (15 min, all doses combined): 0 (0)
Headache pain-free (15 min, all doses combined): 0 (0) n (%)
Headache pain-relief (15 min, all doses combined): 7 (44) n (%)
Most bothersome symptom free (15 min, all doses combined): 1 (6) n (%)
Nausea-free (15 min, all doses combined): 8 (50) n (%)
Neck/shoulder pain-free (15 min, all doses combined): 5 (31) n (%)
Phonophobia-free (15 min, all doses combined): 4 (25) n (%)
Photophobia-free (15 min, all doses combined): 4 (25) n (%)
Headache pain-free [9]: 0%
Headache pain-relief [9]: 44%
Most bothersome symptom-free [9]: 11%
Additional meds taken [10]: 0
Headache pain-free [10]: 2 (22) n (%)
Headache pain-relief [10]: 7 (78) n (%)
Most bothersome symptom free [10]: 6 (67) n (%)
Nausea-free [10]: 8 (88) n (%)
Neck/shoulder pain-free [10]: 6 (67) n (%)
Phonophobia-free [10]: 7 (78) n (%)
Photophobia-free [10]: 5 (56) n (%)
Additional meds taken [11]: 0 (0)
Headache pain-free [11]: 0 (0) n (%)
Headache pain-relief [11]: 2 (66) n (%)
Most bothersome symptom free [11]: 0 (0) n (%)
Nausea-free [11]: 2 (66) n (%)
Neck/shoulder pain-free [11]: 0 (0) n (%)
Phonophobia-free [11]: 0 (0) n (%)
Photophobia-free [11]: 1 (33) n (%)
Additional meds taken [12]: 0 (0)
Headache pain-free [12]: 0 (0) n (%)
Headache pain-relief [12]: 0 (0) n (%)
Most bothersome symptom free [12]: 0 (0) n (%)
Nausea-free [12]: 0 (0) n (%)
Neck/shoulder pain-free [12]: 1 (100) n (%)
Phonophobia-free [12]: 1 (100) n (%)
Photophobia-free [12]: 1 (100) n (%)
Additional meds taken [13]: 0 (0)
Headache pain-free [13]: 0 (0) n (%)
Headache pain-relief [13]: 2 (66) n (%)
Most bothersome symptom free [13]: 0 (0) n (%)
Nausea-free [13]: 2 (66) n (%)
Neck/shoulder pain-free [13]: 1 (33) n (%)
Phonophobia-free [13]: 0 (0) n (%)
Photophobia-free [13]: 0 (0) n (%)
Additional meds taken (30 min, all doses combined): 0 (0)
Headache pain-free (30 min, all doses combined): 2 (13) n (%)
Headache pain-relief (30 min, all doses combined): 10 (63) n (%)
Most bothersome symptom free (30 min, all doses combined): 6 (38) n (%)
Nausea-free (30 min, all doses combined): 12 (75) n (%)
Neck/shoulder pain-free (30 min, all doses combined): 8 (50) n (%)
Phonophobia-free (30 min, all doses combined): 8 (50) n (%)
Photophobia-free (30 min, all doses combined): 7 (48) n (%)
Headache pain-free (30 min, naltrexone 1.5 mg (N=3)): 0%
Headache pain-free [14]: 22%
Headache pain-relief [14]: 78%
Most bothersome symptom-free [14]: 67%
Headache pain-free (30 min, naltrexone/acetaminophen 3.25 mg/325 mg (N=3), naltrexone 3.25 mg (N=3)): 0%
Additional meds taken [15]: 0 (0)
Headache pain-free [15]: 4 (44) n (%)
Headache pain-relief [15]: 8 (88) n (%)
Most bothersome symptom free [15]: 7 (77) n (%)
Nausea-free [15]: 9 (100) n (%)
Neck/shoulder pain-free [15]: 6 (66) n (%)
Phonophobia-free [15]: 8 (88) n (%)
Photophobia-free [15]: 6 (66) n (%)
Additional meds taken [16]: 0
Headache pain-free [16]: 3 (100) n (%)

Reference: US11058680B2, “Combinations of opioid/TLR4 antagonists and acetaminophen for use in the treatment of emotional pain and insomnia” (Allodynic Threapeutics, LLC, priority 2016, dated 2021)
